Measured values reported in patent US20220071996A1, “ORAL FORMULATIONS OF BRANAPLAM” (NOVARTIS AG, priority 2018, published 2022).
Values after ≈ are worked out from the molar mass of the structure shown. Where two headings read alike, the source gives them in different places.

Key:
Assay type in all cases: physicochemical
[1] = solubility of branaplam in selected excipients; conditions: pH 4, aqueous with cosolvent or surfactant or cyclodextrin, thermodynamic from solid
Procedure: (§1) Solubility of branaplam was evaluated in excipients, other than cyclodextrin, such as Cremophor RH40, Tween 80, PG, PEG300, and glycerol. These excipients and concentrations were selected as they are suitable for paediatric formulations. None of the tested excipients was able to support development of a formulation comprising branaplam at a concentration high enough (i.e. about 2 mg/ml or higher) to keep the dose volume in a suitable range (Table 6).
as §1, with “5a).” for “6).”
Solubility of branaplam was measured as follows: stock solutions for the excipients at target concentrations were prepared using milli-Q water and adjusted using pH 4.0 buffer. […] Suspensions were stirred for 24 hours (using a magnetic stirrer) ensuring sufficient swirling and monitoring the temperature. The suspensions were filtered through 0.45 μm nominal pore size filter (e.g. using a PES syringe), and the concentration of branaplam in the filtrate was measured using HPLC (high performance liquid chromatography). The measurements were performed in duplicate and average of the values are reported.

[2] = measured log P of branaplam
[3] = phase solubility of branaplam in 2-hydroxypropyl-beta-cyclodextrin solutions; conditions: room temperature

Question: With `CC1(C)CC(Oc2ccc(-c3ccc(-c4cn[nH]c4)cc3O)nn2)CC(C)(C)N1` [branaplam, 5-(1H-pyrazol-4-yl)-2-(6-((2,2,6,6-tetramethylpiperidin-4-yl)oxy)pyridazin-3-yl)phenol] as the compound, how does the solubility at 24 h ([1]; aqueous excipient stock solution, 2 °C, in Cremophor RH 40 3.5% (w/w), 2-8° C., read-out: Solubility (mg/mL) 2-8° C.) read?
Answer: The solubility at 24 h was 0.44 mg/mL (≈ 1120 µM).

Question: What about the solubility at 24 h ([1]; aqueous excipient stock solution, 2 °C, in Cremophor RH 40 7.0% (w/w), 2-8° C., read-out: Solubility (mg/mL) 2-8° C.) of the same compound?
Answer: Its solubility at 24 h is 0.71 mg/mL (≈ 1800 µM).

Question: And the solubility at 24 h ([1]; aqueous excipient stock solution, 2 °C, in Cremophor RH 40 15.0% (w/w), 2-8° C., read-out: Solubility (mg/mL) 2-8° C.)?
Answer: Its solubility at 24 h is 1.19 mg/mL (≈ 3020 µM).

Question: What about the solubility at 24 h ([1]; aqueous excipient stock solution, 2 °C, in Glycerol 5.0% (w/v), pH 4.0 buffer, 2-8° C., read-out: Solubility (mg/mL) 2-8° C.) of the same compound?
Answer: The solubility at 24 h was 0.2 mg/mL (≈ 508 µM).

Question: What about the solubility at 24 h ([1]; aqueous excipient stock solution, 2 °C, in Glycerol 10.0% (w/v), pH 4.0 buffer, 2-8° C., read-out: Solubility (mg/mL) 2-8° C.) of the same compound?
Answer: The solubility at 24 h was 0.19 mg/mL (≈ 483 µM).

Question: What about the solubility at 24 h ([1]; aqueous excipient stock solution, 2 °C, in Glycerol 25.0% (w/w), 2-8° C., read-out: Solubility (mg/mL) 2-8° C.) of the same compound?
Answer: The solubility at 24 h was 0.37 mg/mL (≈ 940 µM).

Question: What about the solubility at 24 h ([1]; aqueous excipient stock solution, 2 °C, in PEG 300 5.0% (w/v), pH 4.0 buffer, 2-8° C., read-out: Solubility (mg/mL) 2-8° C.) of the same compound?
Answer: Its solubility at 24 h is 0.27 mg/mL (≈ 686 µM).

Question: And the solubility at 24 h ([1]; aqueous excipient stock solution, 2 °C, in PEG 300 10.0% (w/v), pH 4.0 buffer, 2-8° C., read-out: Solubility (mg/mL) 2-8° C.)?
Answer: Its solubility at 24 h is 0.34 mg/mL (≈ 864 µM).

Question: What about the solubility at 24 h ([1]; aqueous excipient stock solution, 2 °C, in PEG 300 25.0% (w/v), pH 4.0 buffer, 2-8° C., read-out: Solubility (mg/mL) 2-8° C.) of the same compound?
Answer: Its solubility at 24 h is 0.87 mg/mL (≈ 2210 µM).

Question: And the solubility at 24 h ([1]; aqueous excipient stock solution, 2 °C, in PEG 400 5.0% (w/v), pH 4.0 buffer, 2-8° C., read-out: Solubility (mg/mL) 2-8° C.)?
Answer: The solubility at 24 h was 0.21 mg/mL (≈ 534 µM).

Question: And the solubility at 24 h ([1]; aqueous excipient stock solution, 2 °C, in PEG 400 10.0% (w/v), pH 4.0 buffer, 2-8° C., read-out: Solubility (mg/mL) 2-8° C.)?
Answer: Its solubility at 24 h is 0.45 mg/mL (≈ 1140 µM).

Question: And the solubility at 24 h ([1]; aqueous excipient stock solution, 2 °C, in PEG 400 25.0% (w/v), pH 4.0 buffer, 2-8° C., read-out: Solubility (mg/mL) 2-8° C.)?
Answer: The solubility at 24 h was 0.93 mg/mL (≈ 2360 µM).

Question: What about the solubility at 24 h ([1]; aqueous excipient stock solution, 2 °C, in Propylene glycol 5.0% (w/v), pH 4.0 buffer, 2-8° C., read-out: Solubility (mg/mL) 2-8° C.) of the same compound?
Answer: The solubility at 24 h was 0.16 mg/mL (≈ 407 µM).

Question: And the solubility at 24 h ([1]; aqueous excipient stock solution, 2 °C, in Propylene glycol 10.0% (w/v), pH 4.0 buffer, 2-8° C., read-out: Solubility (mg/mL) 2-8° C.)?
Answer: Its solubility at 24 h is 0.18 mg/mL (≈ 457 µM).

Question: What about the solubility at 24 h ([1]; aqueous excipient stock solution, 2 °C, in Propylene glycol 25.0% (w/v), pH 4.0 buffer, 2-8° C., read-out: Solubility (mg/mL) 2-8° C.) of the same compound?
Answer: Its solubility at 24 h is 0.42 mg/mL (≈ 1070 µM).

Question: What about the solubility at 24 h ([1]; aqueous excipient stock solution, 2 °C, in Tween 80 0.5% (w/v), pH 4.0 buffer, 2-8° C., read-out: Solubility (mg/mL) 2-8° C.) of the same compound?
Answer: The solubility at 24 h was 0.16 mg/mL (≈ 407 µM).

Question: And the solubility at 24 h ([1]; aqueous excipient stock solution, 2 °C, in Tween 80 0.8% (w/v), pH 4.0 buffer, 2-8° C., read-out: Solubility (mg/mL) 2-8° C.)?
Answer: The solubility at 24 h was 0.22 mg/mL (≈ 559 µM).

Question: And the solubility at 24 h ([1]; aqueous excipient stock solution, 2 °C, in Tween 80 1.5% (w/v), pH 4.0 buffer, 2-8° C., read-out: Solubility (mg/mL) 2-8° C.)?
Answer: Its solubility at 24 h is 0.29 mg/mL (≈ 737 µM).

Question: What about the solubility at 24 h ([1]; aqueous excipient stock solution, 2 °C, in Tween 80 5.0% (w/v), pH 4.0 buffer, 2-8° C., read-out: Solubility (mg/mL) 2-8° C.) of the same compound?
Answer: Its solubility at 24 h is 0.73 mg/mL (≈ 1860 µM).

Question: What about the solubility at 24 h ([1]; aqueous excipient stock solution, 25 °C, in Cremophor RH 40 1.0% (w/w), RT, read-out: Solubility (mg/mL) RT) of the same compound?
Answer: Its solubility at 24 h is 0.28 mg/mL (≈ 712 µM).

Question: And the solubility at 24 h ([1]; aqueous excipient stock solution, 25 °C, in Cremophor RH 40 3.5% (w/w), RT, read-out: Solubility (mg/mL) RT)?
Answer: The solubility at 24 h was 0.53 mg/mL (≈ 1350 µM).

Question: And the solubility at 24 h ([1]; aqueous excipient stock solution, 25 °C, in Cremophor RH 40 7.0% (w/w), RT, read-out: Solubility (mg/mL) RT)?
Answer: The solubility at 24 h was 0.84 mg/mL (≈ 2130 µM).

Question: And the solubility at 24 h ([1]; aqueous excipient stock solution, 25 °C, in Cremophor RH 40 15.0% (w/w), RT, read-out: Solubility (mg/mL) RT)?
Answer: Its solubility at 24 h is 1.32 mg/mL (≈ 3350 µM).

Question: What about the solubility at 24 h ([1]; aqueous excipient stock solution, 25 °C, in Glycerol 5.0% (w/v), pH 4.0 buffer, RT, read-out: Solubility (mg/mL) RT) of the same compound?
Answer: Its solubility at 24 h is 0.18 mg/mL (≈ 457 µM).

Question: And the solubility at 24 h ([1]; aqueous excipient stock solution, 25 °C, in Glycerol 10.0% (w/v), pH 4.0 buffer, RT, read-out: Solubility (mg/mL) RT)?
Answer: The solubility at 24 h was 0.22 mg/mL (≈ 559 µM).

Question: And the solubility at 24 h ([1]; aqueous excipient stock solution, 25 °C, in Glycerol 25.0% (w/w), RT, read-out: Solubility (mg/mL) RT)?
Answer: The solubility at 24 h was 0.38 mg/mL (≈ 966 µM).

Question: And the solubility at 24 h ([1]; aqueous excipient stock solution, 25 °C, in PEG 300 5.0% (w/v), pH 4.0 buffer, RT, read-out: Solubility (mg/mL) RT)?
Answer: Its solubility at 24 h is 0.39 mg/mL (≈ 991 µM).

Question: What about the solubility at 24 h ([1]; aqueous excipient stock solution, 25 °C, in PEG 300 10.0% (w/v), pH 4.0 buffer, RT, read-out: Solubility (mg/mL) RT) of the same compound?
Answer: Its solubility at 24 h is 0.64 mg/mL (≈ 1630 µM).

Question: What about the solubility at 24 h ([1]; aqueous excipient stock solution, 25 °C, in PEG 300 25.0% (w/v), pH 4.0 buffer, RT, read-out: Solubility (mg/mL) RT) of the same compound?
Answer: The solubility at 24 h was 1.61 mg/mL (≈ 4090 µM).

Question: What about the solubility at 24 h ([1]; aqueous excipient stock solution, 25 °C, in PEG 400 5.0% (w/v), pH 4.0 buffer, RT, read-out: Solubility (mg/mL) RT) of the same compound?
Answer: The solubility at 24 h was 0.39 mg/mL (≈ 991 µM).

Question: And the solubility at 24 h ([1]; aqueous excipient stock solution, 25 °C, in PEG 400 10.0% (w/v), pH 4.0 buffer, RT, read-out: Solubility (mg/mL) RT)?
Answer: Its solubility at 24 h is 0.63 mg/mL (≈ 1600 µM).

Question: And the solubility at 24 h ([1]; aqueous excipient stock solution, 25 °C, in PEG 400 25.0% (w/v), pH 4.0 buffer, RT, read-out: Solubility (mg/mL) RT)?
Answer: Its solubility at 24 h is 1.47 mg/mL (≈ 3740 µM).

Question: What about the solubility at 24 h ([1]; aqueous excipient stock solution, 25 °C, in Propylene glycol 5.0% (w/v), pH 4.0 buffer, RT, read-out: Solubility (mg/mL) RT) of the same compound?
Answer: The solubility at 24 h was 0.27 mg/mL (≈ 686 µM).

Question: And the solubility at 24 h ([1]; aqueous excipient stock solution, 25 °C, in Propylene glycol 10.0% (w/v), pH 4.0 buffer, RT, read-out: Solubility (mg/mL) RT)?
Answer: The solubility at 24 h was 0.37 mg/mL (≈ 940 µM).

Question: What about the solubility at 24 h ([1]; aqueous excipient stock solution, 25 °C, in Propylene glycol 25.0% (w/v), pH 4.0 buffer, RT, read-out: Solubility (mg/mL) RT) of the same compound?
Answer: The solubility at 24 h was 0.94 mg/mL (≈ 2390 µM).

Question: What about the solubility at 24 h ([1]; aqueous excipient stock solution, 25 °C, in Tween 80 0.5% (w/v), pH 4.0 buffer, RT, read-out: Solubility (mg/mL) RT) of the same compound?
Answer: The solubility at 24 h was 0.25 mg/mL (≈ 635 µM).

Question: What about the solubility at 24 h ([1]; aqueous excipient stock solution, 25 °C, in Tween 80 0.8% (w/v), pH 4.0 buffer, RT, read-out: Solubility (mg/mL) RT) of the same compound?
Answer: Its solubility at 24 h is 0.28 mg/mL (≈ 712 µM).

Question: What about the solubility at 24 h ([1]; aqueous excipient stock solution, 25 °C, in Tween 80 1.5% (w/v), pH 4.0 buffer, RT, read-out: Solubility (mg/mL) RT) of the same compound?
Answer: The solubility at 24 h was 0.41 mg/mL (≈ 1040 µM).

Question: And the solubility at 24 h ([1]; aqueous excipient stock solution, 25 °C, in Tween 80 5.0% (w/v), pH 4.0 buffer, RT, read-out: Solubility (mg/mL) RT)?
Answer: Its solubility at 24 h is 0.89 mg/mL (≈ 2260 µM).

Question: And the solubility at 24 h ([1]; glycerol 25.0% (w/v) aqueous solution in pH 4.0 buffer, 2 °C, in Glycerol 25.0% (w/v), pH 4.0 buffer, 2-8° C., read-out: Solubility (mg/mL) 2-8° C.)?
Answer: The solubility at 24 h was 0.37 mg/mL (≈ 940 µM).

Question: And the solubility at 24 h ([1]; glycerol 25.0% (w/v) aqueous solution in pH 4.0 buffer, 25 °C, in Glycerol 25.0% (w/v), pH 4.0 buffer, RT, read-out: Solubility (mg/mL) RT)?
Answer: Its solubility at 24 h is 0.38 mg/mL (≈ 966 µM).

Question: What about the logP [2] of the same compound?
Answer: The logP was 2.6.

Question: What about the “branaplam dissolved using 17.5% HP-b-CD” value [3] of the same compound?
Answer: Its value is “about 10 mg/mL”.
